# Assay results reported in US20190105367A1, “ANTIMICROBIAL 4-OXOQUINOLIZINES” (Emergent Product Development Gaithersburg Inc., priority 2011, published 2019).
# Where two headings read alike, the source gives them in different places.
# Key:
# A. baumannii A401 [1] = assay: Preliminary MBC without and with sub-inhibitory polymyxin B (Example 4); type: cell-based, Acinetobacter baumannii; conditions: Acinetobacter baumannii
# [2] = test system: strains of A. baumannii and one strain of Acinetobacter sp.; assay: MIC with sub-inhibitory concentrations (0.25x MIC) of polymyxin B, panel of Acinetobacter strains (Example 4); type: cell-based
# [3] = test system: Acinetobacter sp. (H064200250); assay: MIC without and with sub-inhibitory polymyxin B (Example 4); type: cell-based; conditions: Acinetobacter
# A. baumannii A390 [4] = assay: as above; type: cell-based, Acinetobacter baumannii; conditions: Acinetobacter baumannii, A390, A. baumannii A390; +0.06 μg/ml PB; 2nd experiment; read-out: MIC
# A. baumannii A472 [5] = assay: as above; type: cell-based, Acinetobacter baumannii; conditions: Acinetobacter baumannii
# A. baumannii A329 = assay: Preliminary MBC without and with sub-inhibitory polymyxin B (Example 4); type: cell-based, Acinetobacter baumannii; conditions: Acinetobacter baumannii, A329, A. baumannii A329, +0.06 μg/ml PB, 2nd experiment, read-out: MBC
# A. baumannii A14 [6] = assay: MIC without and with sub-inhibitory polymyxin B (Example 4); type: cell-based, Acinetobacter baumannii; conditions: Acinetobacter baumannii, A14, A. baumannii A14; without PB; value in parentheses; 2nd experiment; read-out: MIC read with alamar blue
# A. baumannii A14 [7] = assay: Preliminary MBC without and with sub-inhibitory polymyxin B (Example 4); type: cell-based, Acinetobacter baumannii; conditions: A. baumannii A14, +0.06 μg/ml PB, 2nd experiment
# Method: (§1) The plates were incubated for 18-20 hours at 37° C. The MBC was read as the lowest concentration at which colony growth was ca. 90% less than the positive control (i.e. usually where single colonies or no colonies were observed).
# A. baumannii A390 [8] = assay: as above; type: cell-based, Acinetobacter baumannii; conditions: Acinetobacter baumannii, A390, A. baumannii A390, +0.06 μg/ml PB, 2nd experiment, read-out: MBC
# Method: as §1
# A. baumannii A473 [9] = assay: as above; type: cell-based, Acinetobacter baumannii; conditions: Acinetobacter baumannii, A473, A. baumannii A473, +0.06 μg/ml PB, 2nd experiment, read-out: MBC
# Method: as §1
# A. baumannii NCTC 13301 [10] = assay: as above; type: cell-based, Acinetobacter baumannii; conditions: Acinetobacter baumannii
# Method: as §1
# A. baumannii A472 [11] = assay: as above; type: cell-based, Acinetobacter baumannii; conditions: Acinetobacter baumannii, preliminary MBC
# A. baumannii J2 [12] = assay: MIC without and with sub-inhibitory polymyxin B (Example 4); type: cell-based, Acinetobacter baumannii; conditions: Acinetobacter baumannii, J2, A. baumannii J2; +[…] PB; 2nd experiment; read-out: MIC
# A. baumannii NCTC 13301 [13] = assay: as above; type: cell-based, Acinetobacter baumannii; conditions: Acinetobacter baumannii, NCTC13301, read-out: MIC +[…] PB
# A. baumannii NCTC 13301 [14] = assay: as above; type: cell-based, Acinetobacter baumannii; conditions: Acinetobacter baumannii, NCTC13301, A. baumannii NCTC 13301; +[…] PB; 2nd experiment; read-out: MIC
# A. baumannii A473 [15] = assay: as above; type: cell-based, Acinetobacter baumannii; conditions: Acinetobacter baumannii, A473, A. baumannii A473; +0.06 μg/ml PB; 2nd experiment; read-out: MIC
# A. baumannii A14 [16] = assay: as above; type: cell-based, Acinetobacter baumannii; conditions: +0.06 μg/ml polymyxin B, 1st experiment
# A. baumannii A387 [17] = assay: as above; type: cell-based, Acinetobacter baumannii; conditions: Acinetobacter baumannii, A387, read-out: MIC +0.06 μg/ml PB, A. baumannii A387; +0.06 μg/ml polymyxin B; 1st experiment
# A. baumannii A387 [18] = assay: Preliminary MBC without and with sub-inhibitory polymyxin B (Example 4); type: cell-based, Acinetobacter baumannii; conditions: Acinetobacter baumannii
# A. baumannii A489 = assay: MIC without and with sub-inhibitory polymyxin B (Example 4); type: cell-based, Acinetobacter baumannii; conditions: Acinetobacter baumannii
# A. baumannii J2 [19] = assay: Preliminary MBC without and with sub-inhibitory polymyxin B (Example 4); type: cell-based, Acinetobacter baumannii; conditions: Acinetobacter baumannii, preliminary MBC
# A. baumannii A401 [20] = assay: MIC without and with sub-inhibitory polymyxin B (Example 4); type: cell-based, Acinetobacter baumannii; conditions: Acinetobacter baumannii
smiles,measurement,setting,value
C[C@@H](O)[C@H]1C(=O)N2C(C(=O)O)=C(S[C@@H]3CN[C@H](C(=O)N(C)C)C3)[C@H](C)[C@H]12 [Meropenem],MBC,"A. baumannii A401 [1]; A401, A baumannii A 401, +0.06 μg/ml PB, 2nd experiment, read-out: MBC",4 µg/mL
same,MBC,"A. baumannii A401 [1]; A401, read-out: MBC +0.06 μg/ml PB, A baumannii A 401, +0.06 μg/ml polymyxin B, 1st experiment",4 µg/mL
same,"MIC range with PB (0.25x MIC) Oct. 1, 2008 n = 8","[2]; 1st experiment, […] polymyxin B, ATCC 19606, A329, A390 and A473 not taken",<0.125 to 4 µg/mL
same,"MIC range with PB (0.25x MIC) Oct. 14, 2008 n = 11","[2]; 2nd experiment, 0.06 μg/ml polymyxin B, all strains except the ATCC strain",≤0.125 to 32 µg/mL
same,MIC,"[3]; Acinetobacter spp. H064200250 (OXA51), +[…] PB, 2nd experiment, read-out: MIC",0.25 µg/mL
same,MIC,"[3]; read-out: MIC +[…] PB, Acinetobacter spp. H064200250, +[…] polymyxin B, 1st experiment",1 µg/mL
same,MIC,A. baumannii A390 [4],2 µg/mL
same,MIC,"A. baumannii A472 [5]; A472, A. baumannii A472, +[…] PB, 2nd experiment, read-out: MIC",≤ 0.125 µg/mL
same,MIC,"A. baumannii A472 [5]; A472, read-out: MIC +[…] PB, A. baumannii A472, +[…] polymyxin B, 1st experiment",≤ 0.125 µg/mL
same,MBC,A. baumannii A329,32 µg/mL
same,MIC,A. baumannii A14 [6],2 µg/mL
same,MBC,A. baumannii A14 [7],1 µg/mL
same,MBC,A. baumannii A390 [8],2 µg/mL
same,MBC,A. baumannii A473 [9],2 µg/mL
same,MBC,"A. baumannii NCTC 13301 [10]; NCTC13301, A. baumannii NCTC 13301, +[…] PB, preliminary MBC, 2nd experiment, read-out: MBC",≤ 0.125 µg/mL
same,MBC,"A. baumannii NCTC 13301 [10]; NCTC13301, read-out: MBC +[…] PB",1 µg/mL
same,MBC,"A. baumannii A472 [11]; A472, A. baumannii A472, +[…] PB, 2nd experiment, read-out: MBC",≤ 0.125 µg/mL
same,MBC,"A. baumannii A472 [11]; A472, read-out: MBC +[…] PB, A. baumannii A472, +[…] polymyxin B, 1st experiment",≤ 0.125 µg/mL
same,MIC,A. baumannii J2 [12],≤ 0.125 µg/mL
same,MIC,A. baumannii NCTC 13301 [13],1 µg/mL
same,MIC,A. baumannii NCTC 13301 [14],0.25 µg/mL
same,MIC,A. baumannii A473 [15],2 µg/mL
same,MIC +0.06 μg/ml PB,A. baumannii A14 [16],0.5 µg/mL
same,MIC,A. baumannii A387 [17],1 µg/mL
same,MBC,"A. baumannii A387 [18]; A387, A. baumannii A387, +0.06 μg/ml PB, 2nd experiment, read-out: MBC",2 µg/mL
same,MBC,"A. baumannii A387 [18]; A387, read-out: MBC +0.06 μg/ml PB, A. baumannii A387, +0.06 μg/ml polymyxin B, 1st experiment",1 µg/mL
same,MIC,"A. baumannii A489; A489, A. baumannii A489, +[…] PB, 2nd experiment, read-out: MIC",≤ 0.125 µg/mL
same,MIC,"A. baumannii A489; A489, read-out: MIC +[…] PB, A. baumannii A489, +[…] polymyxin B, 1st experiment",0.5 µg/mL
same,MBC,"A. baumannii J2 [19]; J2, A. baumannii J2, +[…] PB, 2nd experiment, read-out: MBC",≤ 0.125 µg/mL
same,MBC,"A. baumannii J2 [19]; J2, read-out: MBC +[…] PB, A. baumannii J2, +[…] polymyxin B, 1st experiment",1 µg/mL
same,MIC,"A. baumannii A401 [20]; A401, A baumannii A 401, +0.06 μg/ml PB, 2nd experiment, read-out: MIC",4 µg/mL
same,MIC,"A. baumannii A401 [20]; A401, read-out: MIC +0.06 μg/ml PB, A baumannii A 401, +0.06 μg/ml polymyxin B, 1st experiment",4 µg/mL
